What all share (type): biochemical
One assay deals with human cyclin E-CDK2 (Homo sapiens, UniProt P24941). Description: FlashPlate kinase assay, cyclin E-CDK2, Rb substrate. As to conditions: recombinant cyclin E-CDK2, Rb phosphorylation, 1 μM ATP. The method, then:
(§1) To determine inhibition of Cdk4, Cdk2 and Cdk1 activity, kinase assays were conducted using FlashPlate™ assays (NEN™-Life Science Products). FlashPlate assays were performed using recombinant human cyclin B-CDK1, human cyclin E-CDK2 or human cyclin D1-CDK4 complexes. GST-cyclinE (GST-cycE), CDK2, GST-cyclinB (GST-cycB), CDK1, GST-CDK4 and cyclin D1 (cycD1) cDNA clones in baculovirus vectors were provided by Dr. W. Harper at the Baylor College of Medicine, Houston, Tex. Proteins were co-expressed in High Five™ insect cells and the complex was purified on glutathione Sepharose resin (Pharmacia, Piscataway, N.J.) as previously described (Harper, J. W. et al. Cell 1993, 75, 805-816). A 6×-Histidine tagged truncated form of retinoblastoma (Rb) protein (amino acid 386-928) was used as the substrate for the cycD1-CDK4, cycB-CDK1 and the cycE-CDK2 assays (the expression plasmid was provided by Dr. Veronica Sullivan, Department of Molecular Virology, Roche Research Centre, Welwyn Garden City, United Kingdom). The Rb protein is a natural substrate for phosphorylation by CDK4, CDK2 and CDK1 (see Herwig and Strauss Eur. J. Biochem. Vol. 246 (1997) pp. 581-601 and the references cited therein).
(§2) The expression of the 62 Kd protein was under the control of an IPTG inducible promoter in an M15 E. coli strain. Cells were lysed by sonication and purification was carried out by binding lysates at pH 8.0 to a Ni-chelated agarose column pretreated with 1 mM imidazole. The resin was then washed several times with incrementally decreasing pH buffers to pH 6.0, and eluted with 500 mM imidazole. Eluted protein was dialysed against 20 mM HEPES pH 7.5, 30% glycerol, 200 mM NaCl, and 1 mM DTT. Purified Rb fusion protein stocks were quantitated for protein concentration, aliquoted, and stored at −70° C.
(§3) For all three kinase assays reported herein, 96-well FlashPlates were coated with Rb protein at 10 μg/ml, using 100 μl per well. Plates were incubated at 4° C. overnight or at room temperature for 3 hours on a shaker. To control for nonspecific phosphorylation, one row of wells was coated with 100 μl/well coating buffer (20 mM HEPES, 0.2 M NaCl). Plates were then washed twice with wash buffer (0.01% Tween 20 in phosphate-buffered saline). Compounds to be tested (“test compounds”) were added to the wells at 5×final concentration. Reactions were initiated by immediate addition of 40 μl reaction mix (25 mM HEPES, 20 mM MgCl2, 0.002% Tween 20, 2 mM DTT, 1 μM ATP, 4 nM ^33P-ATP) and a sufficient amount of enzyme to give counts that were at least 10-fold above background. Plates were incubated at room temperature on a shaker for 30 minutes. Plates were washed four times with the wash buffer, sealed, and counted on the TopCount scintillation counter (Packard Instrument Co., Downers Grove, Ill.]. The percent inhibition of Rb phosphorylation, which is a measure of the inhibition of CDK activity, was determined according to the following formula: [formula]
(§4) where “test compound” refers to the average counts per minute of the test duplicates, “nonspecific” refers to the average counts per minute when no CyclinD/Cdk4, etc., was added, and “total” refers to the average counts per minute when no compound was added. The IC50 value is the concentration of test compound that reduces by 50% the protein-kinase induced incorporation of the radiolabel under the test conditions described.

For the next assay, the target named is human cyclin D1-CDK4 (Homo sapiens, UniProt P11802). Description: FlashPlate kinase assay, cyclin D1-CDK4, Rb substrate. The note with it: recombinant cyclin D1-CDK4, Rb phosphorylation, 1 μM ATP. The procedure:
as §1, §2, §3, §4

A further assay deals with human cyclin B-CDK1 (Homo sapiens, UniProt P06493). Description: FlashPlate kinase assay, cyclin B-CDK1, Rb substrate. As to conditions: recombinant cyclin B-CDK1, Rb phosphorylation, 1 μM ATP. The procedure: as §1, §2, §3, §4
Sequence of human cyclin B-CDK1 (P06493 whole entry): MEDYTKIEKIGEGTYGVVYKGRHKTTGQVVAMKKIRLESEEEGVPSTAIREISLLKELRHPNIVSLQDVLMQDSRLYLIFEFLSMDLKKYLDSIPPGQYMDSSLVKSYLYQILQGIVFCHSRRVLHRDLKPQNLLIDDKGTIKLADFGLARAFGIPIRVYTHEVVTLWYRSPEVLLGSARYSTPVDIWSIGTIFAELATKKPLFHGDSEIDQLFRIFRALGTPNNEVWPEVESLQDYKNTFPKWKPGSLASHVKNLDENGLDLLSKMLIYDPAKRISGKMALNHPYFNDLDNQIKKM
Sequence of human cyclin B-CDK1 (P14635 whole entry partner): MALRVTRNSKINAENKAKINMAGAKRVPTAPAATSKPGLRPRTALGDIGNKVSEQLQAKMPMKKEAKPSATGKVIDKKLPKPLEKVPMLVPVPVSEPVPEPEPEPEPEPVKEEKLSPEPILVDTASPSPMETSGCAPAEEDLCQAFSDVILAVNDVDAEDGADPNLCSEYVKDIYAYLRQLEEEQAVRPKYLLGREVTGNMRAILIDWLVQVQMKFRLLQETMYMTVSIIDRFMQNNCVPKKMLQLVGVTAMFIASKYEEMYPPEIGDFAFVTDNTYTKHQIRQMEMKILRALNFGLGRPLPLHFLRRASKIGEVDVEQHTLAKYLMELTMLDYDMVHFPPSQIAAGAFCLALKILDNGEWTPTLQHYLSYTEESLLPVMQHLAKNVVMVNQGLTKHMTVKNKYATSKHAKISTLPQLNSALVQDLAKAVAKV

Sequence of human cyclin D1-CDK4 (P11802 whole entry): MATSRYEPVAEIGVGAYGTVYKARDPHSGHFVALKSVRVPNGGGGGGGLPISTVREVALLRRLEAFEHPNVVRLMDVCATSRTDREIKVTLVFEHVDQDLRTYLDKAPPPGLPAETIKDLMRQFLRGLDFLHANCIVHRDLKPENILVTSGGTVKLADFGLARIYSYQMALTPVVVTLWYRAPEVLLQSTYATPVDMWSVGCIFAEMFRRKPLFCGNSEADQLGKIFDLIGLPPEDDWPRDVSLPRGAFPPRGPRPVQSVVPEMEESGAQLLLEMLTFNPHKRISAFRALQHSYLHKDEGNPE
Sequence of human cyclin D1-CDK4 (P24385 whole entry partner): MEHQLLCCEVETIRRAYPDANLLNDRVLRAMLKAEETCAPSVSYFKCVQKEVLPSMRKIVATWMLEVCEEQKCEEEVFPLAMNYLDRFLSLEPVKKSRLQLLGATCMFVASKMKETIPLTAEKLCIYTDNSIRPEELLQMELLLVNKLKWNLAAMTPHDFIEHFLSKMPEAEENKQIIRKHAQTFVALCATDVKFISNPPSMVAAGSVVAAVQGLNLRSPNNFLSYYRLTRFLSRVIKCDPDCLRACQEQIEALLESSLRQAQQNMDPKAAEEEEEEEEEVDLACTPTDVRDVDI

In the case of `CN(C)CCOc1ccc(Nc2nc(N)c(C(=O)c3cccc(C#N)c3)s2)cc1` [Example 60, 3-[4-Amino-2-[4-(2-dimethylamino-ethoxy)-phenylamino]-thiazole-5-carbonyl]-benzonitrile], the IC50 (as a rule, the concentration that gives 50% inhibition) came out at 1.7 µM on human cyclin E-CDK2, 0.079 µM on human cyclin D1-CDK4 and 0.847 µM on human cyclin B-CDK1.
The corresponding values for `Cc1ccc(C(=O)c2sc(Nc3ccc(OCC(C)(C)N(C)C)cc3)nc2N)cc1F` [Example 75, [4-Amino-2-[4-(2-dimethylamino-2-methyl-propoxy)-phenylamino]-thiazol-5-yl]-(3-fluoro-4-methyl-phenyl)-methanone] are 4.24 µM, 0.097 µM and 0.578 µM.
With `COc1ccc(C(=O)c2sc(Nc3ccc(OCCN4CCCC4)cc3)nc2N)cc1[N+](=O)[O-]` [Example 48, [4-Amino-2-[4-(2-pyrrolidin-1-yl-ethoxy)-phenylamino]-thiazol-5-yl]-(4-methoxy-3-nitro-phenyl)-methanone], the IC50 is 3.16 µM on human cyclin E-CDK2, 0.085 µM on human cyclin D1-CDK4 and 1.55 µM at human cyclin B-CDK1.
For `Cc1cccc(C(=O)c2sc(Nc3ccc(OC4CCNC4)cc3)nc2N)c1` (stereo not drawn) [Example 91, [4-Amino-2-[4-(pyrrolidin-3-yloxy)-phenylamino]-thiazol-5-yl]-m-tolyl-methanone; Compound With Acetic Acid] the same measures were 0.817 µM, 0.067 µM and 0.471 µM.
As to `CCN(CC)CCOc1ccc(Nc2nc(N)c(C(=O)c3ccc4c(c3)C(C)CO4)s2)cc1` (stereo not drawn) [Example 139, [4-Amino-2-[4-(2-diethylamino-ethoxy)-phenylamino]-thiazol-5-yl]-(3-methyl-2,3-dihydro-benzofuran-5-yl)-methanone], the IC50 at human cyclin D1-CDK4 was determined as 0.07 µM.
On to `CCNCCOc1ccc(Nc2nc(N)c(C(=O)c3ccc4c(c3)CCO4)s2)cc1` [Example 143, [4-Amino-2-[4-(2-ethylamino-ethoxy)-phenylamino]-thiazol-5-yl]-(2,3-dihydro-benzofuran-5-yl)-methanone], for which the IC50 at human cyclin E-CDK2 was 3.02 µM; on human cyclin D1-CDK4 it was 0.091 µM; at human cyclin B-CDK1 it was 2.36 µM.
With `Nc1nc(Nc2ccc(OC[C@@H]3CCCN3)cc2)sc1C(=O)c1cccc(F)c1` [Example 3, [4-Amino-2-[4-(pyrrolidin-2-ylmethoxy)-phenylamino]-thiazol-5-yl]-(3-fluoro-phenyl)-methanone], the results for the IC50 on human cyclin E-CDK2, at human cyclin D1-CDK4 and at human cyclin B-CDK1 were 1.17 µM, 0.038 µM and 0.44 µM, respectively.
The corresponding values for `CCCc1cc(C(=O)c2sc(Nc3ccc(OC4CCNC4)cc3)nc2N)ccc1O` (stereo not drawn) [Example 90, [4-Amino-2-[4-(pyrrolidin-3-yloxy)-phenylamino]-thiazol-5-yl]-(4-hydroxy-3-propyl-phenyl)-methanone; Compound With Acetic Acid] are 0.13 µM, 0.043 µM and 0.228 µM.
The corresponding values for `Nc1nc(Nc2ccc(OCCN3CCOCC3)cc2)sc1C(=O)c1ccc2c(c1)OCO2` [Example 56, [4-Amino-2-[4-(2-morpholin-4-yl-ethoxy)-phenylamino]-thiazol-5-yl]-benzo[1,3]dioxol-5-yl-methanone] are 3.02 µM, 0.029 µM and 0.155 µM.
For `CCN1CCC(Oc2ccc(Nc3nc(N)c(C(=O)c4ccc(C)c(F)c4)s3)cc2)C1` (stereo not drawn) [Example 86, [4-Amino-2-[4-(1-ethyl-pyrrolidin-3-yloxy)-phenylamino]-thiazol-5-yl]-(3-fluoro-4-methyl-phenyl)-methanone], the IC50 stood at 1.64 µM on human cyclin E-CDK2, 0.097 µM on human cyclin D1-CDK4 and 0.977 µM at human cyclin B-CDK1.
Turning to `CCN1CCCC(Oc2ccc(Nc3nc(N)c(C(=O)c4ccc(O)c(F)c4)s3)cc2)C1` (stereo not drawn) [Example 82, [4-Amino-2-[4-(1-ethyl-piperidin-3-yloxy)-phenylamino]-thiazol-5-yl]-(3-fluoro-4-hydroxy-phenyl)-methanone], the IC50 came out at 1.5 µM on human cyclin E-CDK2, 0.071 µM at human cyclin D1-CDK4 and 1.02 µM on human cyclin B-CDK1.
`COc1ccc(C(=O)c2sc(Nc3ccc(OCCN(C)C)cc3)nc2N)cc1[N+](=O)[O-]` [Example 49, [4-Amino-2-[4-(2-dimethylamino-ethoxy)-phenylamino]-thiazol-5-yl]-(4-methoxy-3-nitro-phenyl)-methanone]: the IC50 at human cyclin E-CDK2 was 4.3 µM; on human cyclin D1-CDK4, 0.088 µM; on human cyclin B-CDK1, 2.39 µM.
For `Cc1ccc(C(=O)c2sc(Nc3ccc(OC[C@@H](C)N(C)C)cc3)nc2N)cc1F` [Example 74, (R)-[4-Amino-2-[4-(2-dimethylamino-propoxy)-phenylamino]-thiazol-5-yl]-(3-fluoro-4-methyl-phenyl)-methanone], the IC50 at human cyclin E-CDK2 turned out to be 5.13 µM; on human cyclin D1-CDK4, 0.092 µM; at human cyclin B-CDK1, 0.869 µM.
With `Nc1nc(Nc2ccc(OCCN3CCOCC3)cc2)sc1C(=O)c1cccc(F)c1` [Example 47, [4-Amino-2-[4-(2-morpholin-4-yl-ethoxy)-phenylamino]-thiazol-5-yl]-(3-fluoro-phenyl)-methanone], the IC50 on human cyclin E-CDK2 stood at 1.08 µM; on human cyclin D1-CDK4, 0.073 µM; at human cyclin B-CDK1, 0.196 µM.
On to `COc1ccc(C(=O)c2sc(Nc3ccc(OCCCN)cc3)nc2N)cc1F` [Example 147, [4-Amino-2-[4-(3-amino-propoxy)-phenylamino]-thiazol-5-yl]-(3-fluoro-4-methoxy-phenyl)-methanone], for which the values for the IC50 on human cyclin E-CDK2, at human cyclin D1-CDK4 and on human cyclin B-CDK1 were 1.73 µM, 0.097 µM and 0.578 µM, respectively.
Take `Nc1nc(Nc2ccc(OCCN3CCOCC3)cc2)sc1C(=O)c1ccc2c(c1)OCCO2` [Example 55, [4-Amino-2-[4-(2-morpholin-4-yl-ethoxy)-phenylamino]-thiazol-5-yl]-(2,3-dihydro-benzo[1,4]dioxin-6-yl)-methanone]: the IC50 on human cyclin E-CDK2 turned out to be 3.2 µM; at human cyclin D1-CDK4 it was 0.085 µM; on human cyclin B-CDK1 it was 0.61 µM.
Turning to `COc1ccc(C(=O)c2sc(Nc3ccc(OC4CCCNC4)cc3)nc2N)cc1F` (stereo not drawn) [Example 97, [4-Amino-2-[4-(piperidin-3-yloxy)-phenylamino]-thiazol-5-yl]-(3-fluoro-4-methoxy-phenyl)-methanone], the IC50 at human cyclin E-CDK2 came out at 3.74 µM; at human cyclin D1-CDK4, 0.096 µM; on human cyclin B-CDK1 it was 1.72 µM.
Consider `Cc1ccc(C(=O)c2sc(Nc3ccc(OC4CCNC4)cc3)nc2N)cc1F` (stereo not drawn) [Example 94, [4-Amino-2-[4-(pyrrolidin-3-yloxy)-phenylamino]-thiazol-5-yl]-(3-fluoro-4-methyl-phenyl)-methanone; Compound With Acetic Acid], for which the IC50 at human cyclin E-CDK2 was 2.04 µM; on human cyclin D1-CDK4 it was 0.086 µM; on human cyclin B-CDK1 it was 0.682 µM.
For the compound `CN(C)C(C)(C)COc1ccc(Nc2nc(N)c(C(=O)c3cccc(F)c3)s2)cc1` [Example 39, [4-Amino-2-[4-(2-dimethylamino-2-methyl-propoxy)-phenylamino]-thiazol-5-yl]-(3-fluoro-phenyl)-methanone], the results for the IC50 on human cyclin E-CDK2, at human cyclin D1-CDK4 and at human cyclin B-CDK1 were 0.85 µM, 0.092 µM and 0.613 µM, respectively.
Take `CCN(CC)CCOc1ccc(Nc2nc(N)c(C(=O)c3ccc4c(c3)CCO4)s2)cc1` [Example 142, [4-Amino-2-[4-(2-diethylamino-ethoxy)-phenylamino]-thiazol-5-yl]-(2,3-dihydro-benzofuran-5-yl)-methanone]: the IC50 on human cyclin D1-CDK4 stood at 0.1 µM; on human cyclin B-CDK1 it was 6.43 µM.
